Experimental data taken from patent publication US11896032B2, “Agent for improving feed conversion rate, agent for improving survival rate, agent for improving the number of eggs laid by egg-laying hen, and method of giving same to animals, and feed” (Tsubakisangyo Co., Ltd., priority 2016, dated 2024).
Where “and” joins values, the source holds several entries; their conditions need not be identical. Identical values can stand only once.

Legend:
[1] = tested on: chickens for meat (broilers); experiment: Third test: feed with powdery acetylcysteine added given to chickens for meat (broilers); type: in vivo, chicken (Chunky broiler)
Procedure: A third test was performed by giving chickens for meat (broilers) a feed having powdery acetylcysteine added thereto.
300 (150 males and 150 females) broiler-dedicated breed day-old chicks (broilers available from Nippon Chunky Co., Ltd.) are fed. As the chicks, about 350 birds (175 males and 175 females) were introduced, and individuals not having any abnormal health condition and having a close weight were selected and used in the test.
The nutritional value of this basic feed is adjusted so as to be lower than the index.
The concentration of acetylcysteine added to the basic feed was determined based on the aimed results for Chunky broiler (2014).
Three groups were assigned to the control zone and the test zone, respectively, and the chicks were raised until 49-day old.
Each flock of tested chicks was raised in an electrically heated windowless chicken house of a forced ventilation (air exhaust) type.
For vaccination, chicks vaccinated with Marek's vaccine and live fowl pox vaccine when born were introduced, and were additionally vaccinated with NB live vaccine at 4-day old and 15-day old and with live fowl pox vaccine at 21-day old.
The feed and drinking water were continuously given.

egg-laying hens [2] = experiment: Second test: feed with powdery acetylcysteine added given to egg-laying hens; type: in vivo, chicken (Julia Light); conditions: for egg production rate: 28 days, 42- to 46-week old hens
Procedure: The second test was performed by giving a feed, to which powdery acetylcysteine was added, to egg-laying hens.
120 individuals having an egg production rate of 82% or more 4 weeks before the start of the preparative raising were selected from Julia Light birds (281-day old when partitioned) which were being raised in the scientific feed research center of Japan Scientific Feeds Association to be fed.
Three zones were set: a control zone where a basic feed not having acetylcysteine added thereto was given, a first test zone (standard zone) where a feed comprising a basic feed to which 0.0014% acetylcysteine was added was given, and a second test zone (5-fold zone) where a feed comprising a basic feed to which 0.0072% acetylcysteine was added was given.
Four groups were assigned to each zone, and the basic feed was given for 14 days to accustom the tested hens to the test environment. After that, the feed corresponding to each zone was given for 4 weeks.
Also in the second test, a standard daily intake of acetylcysteine per bird is planned to be 1 mg per weight (Kg) of a tested hen. In the main test, from the weight at the start of preparative raising and the feed intake one week after the start of preparative raising, assuming that the weight of a tested hen was 1580 g and a daily feed intake per bird was 140 g, the amount of acetylcysteine to be added to the basic feed was set from the following expression: standard zone: amount (%) of acetylcysteine to be added to the basic feed=weight (1580 g)×acetylcysteine intake (1 mg/weight (Kg))/feed intake (114 g/day/bird)×100 5-fold zone: amount (%) of acetylcysteine to be added to the basic feed=weight (1580 g)×acetylcysteine intake (5 mg/weight (Kg))/feed intake (114 g/day/bird)×100 <Management of Raising>
The tested hens were individually managed in a terraced individual cage for egg-laying hens disposed in an open chicken house. A set of 10 continuous cages was used for each group, and a single empty cage was disposed between the zones. The feed and drinking water were continuously given. The light beams were controlled such that the bright period was 14 hours and the dark period was 10 hours.
A variation in weight, the average egg weight, the daily egg production amount, the feed intake, and the feed efficiency were subjected to analysis of variance by a method of one-way analysis of variance using the given feed as a factor, and the superiority in each interval was examined. The egg production rate was subjected to arcsine transformation, and the superiority of the difference between intervals was similarly examined. The culling hens were excluded from the average back to the start of the test, and the results of egg production and the like were summarized. The egg production rate during the test period was subjected to rejection test, and the individuals whose egg production rate was determined as abnormal were also excluded from the average back to the start of the test.
The scientific feed research center of Japan Scientific Feeds Association (821 Yoshikura, Naritashi, Chiba)
The test was performed for 42 days from September 21 to November 2, Heisei 28. The 14 days from September 21 to October 5, Heisei 28 was the preparative test period, and the 28 days from October 6 to November 2, Heisei 28 was the main test period.

egg-laying hens [3] = experiment: First test: aqueous solution of acetylcysteine given to egg-laying hens as drinking water; type: in vivo, chicken (Julia Light in test zone, Julia in control zone)
Procedure: The first test was performed by giving an aqueous solution of acetylcysteine to egg-laying hens as drinking water.
Adult egg-laying hens were selected as the target animal for the test because data is readily collected. The point of time when the test was started was at off-peak times in egg laying.
Two breeds Julia and Julia Light were used.
For this reason, in the main test, Julia having a low feed conversion rate (high profitability) was raised in the control zone and Julia Light having a high feed conversion rate (low profitability) was raised in the test zone.
The number of hens in the test zone was 33412 Julia Light hens and that in the control zone was also 33412 Julia hens.
The test zone and the control zone were placed in Akagiyama Farm run by Takai Poultry Farm Y.K., where chickens are actually raised, to perform the test in an actual situation.
A windowless house was used because differences between individuals and differences in heath conditions are small.
The house was provided with a cage having a width of 380 mm, a length of 500 mm, and a height of 380 mm.
To avoid application of heat stress to the target chickens for the test, the test was performed for 166 days from October 21, Heisei 27 to April 3, Heisei 28. At a temperature inside the house of more than 27° C., the feed demand (feed intake) of the chickens will reduce due to heat stress.
A Kumiai Blend Feed “Akagikougen 17 Up for adult chicken” shown in FIG. 1 was given from October 21, Heisei 27 to February 13, Heisei 28, and a Kumiai Blend Feed “Akagikougen 16 Up for adult chicken” shown in FIG. 2 was given from February 23 to April 3, Heisei 28.
As the agent for improving a feed conversion rate, the agent for improving a survival rate, or the agent for improving the number of eggs laid by an egg-laying hen, an aqueous solution of acetylcysteine was given to Julia Light in the test zone as drinking water through the nipples disposed at both ends of the ceiling of the cage.
The concentration of acetylcysteine in drinking water was prepared such that 1 mg/day/Kg acetylcysteine was given to the egg-laying hens. Specifically, 3.3 L per day of a stock solution having an acetylcysteine concentration of 10% was used for 33412 Julia Light hens having a weight of about 2 Kg.
The frequency to give the agent for improving a feed conversion rate, the agent for improving a survival rate, or the agent for improving the number of eggs laid by an egg-laying hen was one time for 5 days.
Water not containing agent for improving a feed conversion rate, the agent for improving a survival rate, or the agent for improving the number of eggs laid by an egg-laying hen was given to Julia in the control zone through the nipple.
The lower columns in FIG. 3 show the difference in the number of deaths, the difference in the number of eggs laid, the average feed demand, the average egg production rate, and the average egg weight between the target chickens for the test and the control during the test period.
A smaller number of deaths and cullings of the target chickens for the test are preferred. A larger number of eggs laid are preferred. A smaller feed demand (feed intake) is preferred although it should be balanced with the egg production rate and the egg weight. A larger egg production rate is preferred. A larger egg weight and a larger average egg weight are preferred. The feed conversion rate of the target egg-laying hen for the test is calculated as a ratio of the total weight of eggs laid to the feed demand as described above. The feed demand is calculated as a product of the feed intake, the number of birds, and the survival rate. The total weight of eggs laid is calculated as a product of the number of birds, the egg production rate, and the average egg weight.
The feed conversion rate of the target egg-laying hen for the test is represented by a ratio of the amount of feed given to the total weight of eggs laid as described above. […]

chickens for meat = conditions: 1% glycine in feed; cited from earlier work
[4] = 1 mg/day/Kg in drinking water, 166 days

CC(=O)N[C@@H](CS)C(=O)O [acetylcysteine, N-acetyl-L-cysteine]
feed conversion rate in the test zone relative to that in the control zone ([1]; 1 mg/Kg daily in feed, until 49-day old): 100.55% | feed efficiency in the test zone relative to that in the control zone ([1]; Weeks 4 to 7 of the second period): 101.54% | number of deaths and cullings ([1]; test zone, control zone 3 birds, Week 6 (sudden death syndrome)): 1 bird | growth rate ([1]; test zone, control zone 98%): 99.3% | feed efficiency in the test zone relative to that in the control zone ([1]; three weeks of the first period): 99.32% | feed efficiency in the test zone relative to that in the control zone ([1]; whole period, until 49-day old): 100.93% | weight at the end of the test relative to control zone (egg-laying hens [2]; 5-fold zone, 0.0072% acetylcysteine in feed, 4 weeks): approximately equal | egg production rate (egg-laying hens [2]; 5-fold zone, 0.0072% in feed): 98.6% | feed conversion rate, higher than that in the control zone (egg-laying hens [2]; feed contained 0.2% DL-methionine, zone not specified): 4.43% | weight at the end of the test, larger than that in the control zone (egg-laying hens [2]; standard zone, 0.0014% acetylcysteine in feed, 4 weeks): 0.5% | egg production rate (egg-laying hens [2]; standard zone, 0.0014% in feed): 99.2% | decrease of average egg weight in test zone compared to control zone (egg-laying hens [3]; [4]): 2.16% | increase of average egg production rate in test zone compared to control zone (egg-laying hens [3]; [4]): 1.13% | increase of number of eggs laid in test zone compared to control zone (egg-laying hens [3]; [4]): 1.67% | proportion of the feed conversion rate in the test zone to that in the control zone (egg-laying hens [3]; [4]): 96.50% and 96.48% | reduction (improvement) of feed conversion rate in test zone compared to control zone (egg-laying hens [3]; [4]): 3.52% | reduction of number of deaths and cullings in test zone compared to control zone (egg-laying hens [3]; [4]): 20% | feed conversion rate in the test zone (egg-laying hens [3]; 1 mg/day/Kg in drinking water, given one time for 5 days, 166 days, control zone 1.99): 1.92 | reduction of feed demand (egg-laying hens [3]; as shown in FIG. 3, test zone vs control zone): 4.67% | improvement of feed conversion rate in test zone vs control zone in consideration of the preparative test (egg-laying hens [3]; corrected for 1.59% increase in 20-day preparative test without agent): 5.11% | surface roughness of egg shells, visual observation, vs eggs of control zone (egg-laying hens [3]; eggs collected in the test zone): finer and smoother surfaces | improvement in feed conversion rate in the test of the old hens in the chicken farm (egg-laying hens [3]; old hens, chicken farm): more than 5% | calcium in solid products of feces washed with water (egg-laying hens [3]; test zone, calcium was found in the control zone): no calcium was found

NCC(=O)O [glycine]
weights of chickens of 7-day old vs without giving glycine (chickens for meat): smaller
